Assay results published in article PMC4792161, “A novel pyrazole derivative protects from ovariectomy-induced osteoporosis through the inhibition of NADPH oxidase” (Scientific Reports, 2016).

Key:
[1] = target: T1, human Nox1 (Homo sapiens, UniProt Q9Y5S8); experiment: Nox inhibitor screening, Drosophila membranes over-expressing human Nox1, ROS chemiluminescence; assay type: biochemical; conditions: hNox1 Drosophila membranes
T1 construct: made in house; host or cells: transgenic Drosophila (Duox knockdown, Da-GAL4 driven UAS-hNOX1); membrane-enriched fly homogenate
T1 sequence (Q9Y5S8 1-564): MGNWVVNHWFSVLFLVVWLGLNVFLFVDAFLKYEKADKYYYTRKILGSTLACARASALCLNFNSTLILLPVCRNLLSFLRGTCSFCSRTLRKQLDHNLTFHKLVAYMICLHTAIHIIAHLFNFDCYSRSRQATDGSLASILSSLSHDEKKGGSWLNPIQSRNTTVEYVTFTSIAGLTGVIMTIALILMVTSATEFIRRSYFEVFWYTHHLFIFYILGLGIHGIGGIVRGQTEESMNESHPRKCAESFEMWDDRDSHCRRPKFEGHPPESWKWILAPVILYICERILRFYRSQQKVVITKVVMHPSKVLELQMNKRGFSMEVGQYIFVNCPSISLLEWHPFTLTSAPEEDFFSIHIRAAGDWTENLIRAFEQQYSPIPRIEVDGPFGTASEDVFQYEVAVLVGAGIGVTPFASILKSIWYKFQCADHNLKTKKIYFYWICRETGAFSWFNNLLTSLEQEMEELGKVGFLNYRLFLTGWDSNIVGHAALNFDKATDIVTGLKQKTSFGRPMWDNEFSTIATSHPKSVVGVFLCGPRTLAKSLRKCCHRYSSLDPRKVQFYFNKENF
From the text: (§1) Purified Drosophila membranes expressing human Nox1, Nox2, or Nox4 were used to monitor ROS production by determining the oxidation of lucigenin, evident as chemiluminescence, in the absence or presence of chemical compound[18].
(§2) Drosophila membranes specifically overexpressing hNox1, hNox2, and hNox4 were subjected into ROS measurement with Diogene.
(§3) The genotypes used were human Nox1 (UAS-hNOX1/UAS-DUOX-RNAi; Da-GAL4/+), Nox2 (UAS-hNOX2/UAS-DUOX-RNAi; Da-GAL4/+) and Nox4 (UAS-hNOX4/UAS-DUOX-RNAi; Da-GAL4/+). Transgenic flies were homogenated with ice-cold PBS containing protease inhibitors and membrane-enriched human Nox1, 2, or 4 were harvested. Membranes containing human Nox1, 2, or 4 served to monitor ROS production by lucigenin chemiluminescence in the absence or presence of chemical compound[18].

[2] = target: T2, human Nox2 (Homo sapiens, UniProt P04839); experiment: Nox inhibitor screening, Drosophila membranes over-expressing human Nox2, ROS chemiluminescence; assay type: biochemical; conditions: hNox2 Drosophila membranes
T2 construct: made in house; host or cells: transgenic Drosophila (Duox knockdown, Da-GAL4 driven UAS-hNOX2); membrane-enriched fly homogenate
T2 sequence (P04839 2-570 limits assumed): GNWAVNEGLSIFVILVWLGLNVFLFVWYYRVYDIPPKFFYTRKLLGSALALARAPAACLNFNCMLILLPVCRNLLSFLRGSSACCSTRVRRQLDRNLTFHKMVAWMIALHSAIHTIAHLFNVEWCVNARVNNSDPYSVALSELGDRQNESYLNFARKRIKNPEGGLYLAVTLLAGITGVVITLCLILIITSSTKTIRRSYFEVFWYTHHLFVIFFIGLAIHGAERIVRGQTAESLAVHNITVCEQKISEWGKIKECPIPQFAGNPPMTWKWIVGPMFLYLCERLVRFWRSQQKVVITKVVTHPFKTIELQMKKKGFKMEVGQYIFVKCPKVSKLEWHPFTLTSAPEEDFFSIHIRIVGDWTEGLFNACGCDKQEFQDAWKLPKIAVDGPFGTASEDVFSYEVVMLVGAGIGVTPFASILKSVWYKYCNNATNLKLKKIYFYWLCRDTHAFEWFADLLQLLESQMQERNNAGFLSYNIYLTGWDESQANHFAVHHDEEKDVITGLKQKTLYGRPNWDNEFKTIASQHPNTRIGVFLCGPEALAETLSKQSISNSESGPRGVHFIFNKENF
From the text: as §1, §2, §3

[3] = target: T3, human Nox4 (Homo sapiens, UniProt Q9NPH5); experiment: Nox inhibitor screening, Drosophila membranes over-expressing human Nox4, ROS chemiluminescence; assay type: biochemical; conditions: hNox4 Drosophila membranes
T3 construct: made in house; host or cells: transgenic Drosophila (Duox knockdown, Da-GAL4 driven UAS-hNOX4); membrane-enriched fly homogenate
T3 sequence (Q9NPH5 1-578): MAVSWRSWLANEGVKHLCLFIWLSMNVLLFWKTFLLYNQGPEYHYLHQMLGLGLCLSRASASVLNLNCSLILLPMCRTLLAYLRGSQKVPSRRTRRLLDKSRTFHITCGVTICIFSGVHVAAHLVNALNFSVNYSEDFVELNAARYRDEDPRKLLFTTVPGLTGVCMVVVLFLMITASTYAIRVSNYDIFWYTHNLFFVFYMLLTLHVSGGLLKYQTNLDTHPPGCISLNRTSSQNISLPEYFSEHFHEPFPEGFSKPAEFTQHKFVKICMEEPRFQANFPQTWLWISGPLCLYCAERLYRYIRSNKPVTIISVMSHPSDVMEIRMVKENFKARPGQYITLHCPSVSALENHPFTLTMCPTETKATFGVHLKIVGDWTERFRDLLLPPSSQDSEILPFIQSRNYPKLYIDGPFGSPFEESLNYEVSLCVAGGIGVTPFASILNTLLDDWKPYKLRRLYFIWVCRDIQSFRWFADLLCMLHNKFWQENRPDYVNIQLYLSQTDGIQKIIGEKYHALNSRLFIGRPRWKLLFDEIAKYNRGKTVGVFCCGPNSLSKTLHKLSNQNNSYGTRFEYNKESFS
From the text: as §1, §2, §3

[4] = target: xanthine oxidase (Bos taurus, UniProt P80457); experiment: Xanthine oxidase assay (lucigenin); assay type: biochemical
xanthine oxidase, sequence (P80457 2-1332): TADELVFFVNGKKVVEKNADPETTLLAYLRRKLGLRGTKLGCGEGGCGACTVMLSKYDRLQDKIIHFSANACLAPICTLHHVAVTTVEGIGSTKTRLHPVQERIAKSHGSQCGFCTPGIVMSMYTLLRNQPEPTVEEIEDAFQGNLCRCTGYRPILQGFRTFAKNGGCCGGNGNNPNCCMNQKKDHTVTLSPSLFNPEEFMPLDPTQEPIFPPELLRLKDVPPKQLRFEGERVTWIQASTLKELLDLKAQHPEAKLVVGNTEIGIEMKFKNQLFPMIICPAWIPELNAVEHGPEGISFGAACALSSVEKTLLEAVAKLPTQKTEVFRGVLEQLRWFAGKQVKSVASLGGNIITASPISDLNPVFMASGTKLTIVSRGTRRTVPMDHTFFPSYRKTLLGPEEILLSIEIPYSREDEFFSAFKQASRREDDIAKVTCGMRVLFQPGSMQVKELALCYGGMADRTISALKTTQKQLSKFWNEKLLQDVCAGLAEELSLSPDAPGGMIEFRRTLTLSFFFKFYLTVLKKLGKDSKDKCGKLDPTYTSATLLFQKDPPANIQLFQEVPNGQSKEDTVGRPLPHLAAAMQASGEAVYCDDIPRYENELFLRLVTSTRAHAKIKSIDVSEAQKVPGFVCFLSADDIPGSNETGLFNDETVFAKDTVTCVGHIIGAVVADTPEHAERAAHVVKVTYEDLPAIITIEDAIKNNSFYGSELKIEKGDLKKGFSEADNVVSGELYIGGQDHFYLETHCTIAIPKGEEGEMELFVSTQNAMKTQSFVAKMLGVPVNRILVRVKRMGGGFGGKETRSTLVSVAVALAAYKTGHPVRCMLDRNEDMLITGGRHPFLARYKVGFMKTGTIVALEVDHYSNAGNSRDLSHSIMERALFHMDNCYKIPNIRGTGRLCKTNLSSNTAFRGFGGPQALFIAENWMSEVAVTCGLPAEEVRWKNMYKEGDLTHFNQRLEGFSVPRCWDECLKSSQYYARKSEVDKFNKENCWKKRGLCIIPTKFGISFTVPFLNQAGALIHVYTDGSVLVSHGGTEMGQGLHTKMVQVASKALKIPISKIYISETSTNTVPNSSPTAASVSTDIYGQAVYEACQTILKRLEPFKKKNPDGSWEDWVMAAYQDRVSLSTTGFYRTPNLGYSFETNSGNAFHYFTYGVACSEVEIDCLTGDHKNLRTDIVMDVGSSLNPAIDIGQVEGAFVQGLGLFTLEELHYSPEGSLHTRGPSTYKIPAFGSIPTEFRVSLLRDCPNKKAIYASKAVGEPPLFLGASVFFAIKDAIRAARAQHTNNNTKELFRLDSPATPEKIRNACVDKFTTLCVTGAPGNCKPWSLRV
Method: Xanthine oxidase activity was measured by lucigenin. Reaction mixtures contained 0.1 mU xanthine oxidase, 0.25 mM Xanthine, and 0.4 mM lucigenin with the indicated inhibitor (0–20 μM). Luminescence measured over 30 min at 37 °C with luminometor (DTX800, Beckman coulter).

[5] = target: glucose oxidase (Aspergillus niger, UniProt P13006); experiment: Glucose oxidase assay (lucigenin); assay type: biochemical
glucose oxidase, sequence (P13006 17-605, species assumed): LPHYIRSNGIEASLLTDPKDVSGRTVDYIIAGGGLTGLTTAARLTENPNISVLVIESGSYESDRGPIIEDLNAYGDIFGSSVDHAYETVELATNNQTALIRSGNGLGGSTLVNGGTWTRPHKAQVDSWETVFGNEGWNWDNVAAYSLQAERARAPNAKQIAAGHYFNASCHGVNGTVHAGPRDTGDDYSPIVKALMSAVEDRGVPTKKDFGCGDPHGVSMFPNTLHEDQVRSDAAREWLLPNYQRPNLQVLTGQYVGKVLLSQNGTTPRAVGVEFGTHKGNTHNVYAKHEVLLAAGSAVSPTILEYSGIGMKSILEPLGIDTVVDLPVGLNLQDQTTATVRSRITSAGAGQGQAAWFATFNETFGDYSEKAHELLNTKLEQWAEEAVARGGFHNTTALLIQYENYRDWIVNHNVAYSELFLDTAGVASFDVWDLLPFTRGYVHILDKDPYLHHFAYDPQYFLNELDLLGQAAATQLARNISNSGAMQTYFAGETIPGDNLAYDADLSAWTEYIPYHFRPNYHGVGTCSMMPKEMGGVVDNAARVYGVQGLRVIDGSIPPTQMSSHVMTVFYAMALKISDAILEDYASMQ
Method: Glucose oxidase activity was measured by lucigenin. Reaction mixtures contained 0.75 mM glucose, 0.25 mg/ml glucose oxidase, and 0.4 mM lucigenin with the indicated inhibitor (0–20μM). Luminescence was measured over 30 min at 37 °C with luminometor (DTX800, Beckman coulter).

[6] = Pharmacokinetics after IV and oral administration to rats; assay type: in vivo
Method: Supplementary Table S1. Pharmacokinetic parameters of Ewha-89403 following IV and oral administration at the doses of 1 mg/kg and 10 mg/kg, respectively, to rats (n=4-5) PK Parameters IV Injection Oral Administration
Absolute Bioavailability (BA) = 4.3 %
Supplementary Table S2. Pharmacokinetic parameters of Ewha-18278 following IV and oral administration at the doses of 2 mg/kg and 20 mg/kg, respectively, to rats (n=5-6) […]
Absolute Bioavailability (BA) = 63.8 %

Oc1cc(-c2ccccc2)nn1-c1ccccn1 [Ewha-89403, 3-phenyl-1-(pyridin-2-yl)-1H-5-hydroxypyrazole]
Ki [1]: 1.45 µM | Ki [2]: 2.57 µM | Ki [3]: 3.12 µM | inhibitory activity on xanthine oxidase [4]: no inhibitory activities | inhibitory activity on glucose oxidase [5]: no inhibitory activities | Clt ([6]; IV 1 mg/kg): 1277 ± 162.1 mL/h | AUC(0-inf) ([6]; rat, in vivo, IV 1 mg/kg): 418 ± 56 ng·h/mL | AUC(0-t) ([6]; rat, in vivo, IV 1 mg/kg): 343 ± 45 ng·h/mL | C0 ([6]; rat, in vivo, IV 1 mg/kg): 2520 ± 837 ng/mL | Vd ([6]; rat, in vivo, IV 1 mg/kg): 2.64 ± 1.41 L | half-life ([6]; rat, in vivo, IV 1 mg/kg): 1.43 ± 0.723 h | bioavailability ([6]; rat, in vivo, IV 1 mg/kg and oral 10 mg/kg, read-out: Absolute Bioavailability (BA)): 4.3% | AUC(0-inf) ([6]; rat, in vivo, oral 10 mg/kg): 302 ± 133 ng·h/mL | AUC(0-t) ([6]; rat, in vivo, oral 10 mg/kg): 149 ± 39 ng·h/mL | Cmax ([6]; rat, in vivo, oral 10 mg/kg): 194 ± 54 ng/mL | Tmax ([6]; rat, in vivo, oral 10 mg/kg): 6.12 ± 2.34 min | half-life ([6]; rat, in vivo, oral 10 mg/kg): 3.3 ± 2.08 h
